Literature values as cited in patent US20080026050A1, “SOLID DOSE FORMULATIONS OF A THROMBIN RECEPTOR ANTAGONIST” (priority 2006, published 2008).

Target: T1, thrombin receptor (Homo sapiens, UniProt P25116)
T1 sequence (P25116 22-425): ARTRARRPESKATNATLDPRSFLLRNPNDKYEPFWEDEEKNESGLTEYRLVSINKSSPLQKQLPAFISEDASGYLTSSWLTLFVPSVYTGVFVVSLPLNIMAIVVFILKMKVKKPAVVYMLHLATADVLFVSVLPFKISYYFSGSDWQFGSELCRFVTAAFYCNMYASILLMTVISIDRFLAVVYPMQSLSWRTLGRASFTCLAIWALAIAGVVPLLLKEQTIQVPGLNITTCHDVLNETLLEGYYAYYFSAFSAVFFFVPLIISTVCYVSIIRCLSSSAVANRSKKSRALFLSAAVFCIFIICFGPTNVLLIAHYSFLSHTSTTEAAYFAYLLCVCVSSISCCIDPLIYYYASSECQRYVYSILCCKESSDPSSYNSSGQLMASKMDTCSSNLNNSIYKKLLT
Conditions: general statement, refers to U.S. application Ser. No. 10/412,982

selectivity: good
thrombin receptor antagonist activity (potency): good
Compound: CCOC(=O)N[C@@H]1CC[C@@H]2[C@@H](C1)C[C@H]1C(=O)O[C@H](C)[C@H]1[C@H]2/C=C/c1ccc(-c2cccc(F)c2)cn1 [COMPOUND 1]
